Key:
[1] = tested on: RP-R-02LM ccRCC PDX; format: in vivo; details: tumors at primary site
Description: Mice bearing human ccRCC patient derived xenograft (PDXs); RP-R-01, RP-R-02 and RP-R-02LM (a metastatic ccRCC model established from RP-R-02) were implanted into SCID mice. […] Tumors volumes and body weight were assessed once per week. Tumor tissues and lungs were collected for immunohistochemistry analysis. All assessments and quantification were done blindly.

[2] = tested on: SU-DHL10 cells; details: for growth inhibition by the drug by itself: SU-DHL10, single agent
Description: (§1) After 3 days of co-treatment, cell viability was measured via ATP content using CellTiter-Glo®
(§2) Synergy quantification is performed using the Chou-Talalay method^3 for drug combination. The Combination Index (CI) equation offers a quantitative definition for additivity (CI=1), synergism (CI<1), and antagonism (CI>1). This equation used Fa values from a constant ratio of drug combination to determine CI values. […] These Fa-CI plots are generated using the Calcusyn software.
(§3) After 3 days of co-treatment (5 days for Toledo assays), cell viability was measured via ATP content using CellTiter-Glo® (Promega) and luminescence was detected using a SpectraMax M5 microplate reader (Molecular Devices).
as §2, with “Chou-Talalay method” for “Chou-Talalay method^3”, “drug combination (Ref 1).” for “drug combination.”, “used fractional effect (Fa)” for “used Fa”, “Calcusyn for Windows software (Ref2).” for “Calcusyn software.”
(§4) Dose responses were plotted using Graphpad Prism and either 50% or 60% inhibitory concentrations were interpolated from the dose response curves.

[3] = tested on: Toledo cells; details: Toledo (WT EZH2 ABC); drug combined with Compound 44
Description: as §1, §2, §3
as §2, with “Chou-Talalay method” for “Chou-Talalay method^3”, “drug combination (Ref 1).” for “drug combination.”, “used fractional effect (Fa)” for “used Fa”, “Calcusyn for Windows software (Ref2).” for “Calcusyn software.”
as §4

[4] = tested on: DOHH2 cells; details: DOHH2 (WT EZH2 GCB); drug combined with Compound 44
Description: as §1, §2, §3
as §2, with “Chou-Talalay method” for “Chou-Talalay method^3”, “drug combination (Ref 1).” for “drug combination.”, “used fractional effect (Fa)” for “used Fa”, “Calcusyn for Windows software (Ref2).” for “Calcusyn software.”
as §4

[5] = tested on: WSU-DLCL2 cells; details: for growth inhibition by the drug by itself: WSU-DLCL2, single agent
Description: as §1, §2, §3
as §2, with “Chou-Talalay method” for “Chou-Talalay method^3”, “drug combination (Ref 1).” for “drug combination.”, “used fractional effect (Fa)” for “used Fa”, “Calcusyn for Windows software (Ref2).” for “Calcusyn software.”
as §4

[6] = due to its cardiotoxicity; cited from earlier work
[7] = tested on: EZH2 mutant lymphoma cell line; experiment: Combination assay with targeted therapies (pre-treatment model A, Calcusyn), EZH2 mutant lymphoma cell line; format: cell-based; details: pretreatment model A, combined with Compound 44
Excerpt: Statistically significant CI values for synergy are for example those CI value<1 with the confidence interval lines also below 1.
CI values<1 with confidence interval lines also below 1 indicate statistically significant synergism.

[8] = SU-DHL 10 (EZH2 mutant GCB), drug combined with Compound 44
[9] = WSU-DLCL2 (EZH2 mutant GCB), drug combined with Compound 44

| SMILES | Summary of Combinations with Compound 44 (combination effect) [3] | Summary of Combinations with Compound 44 (combination effect) [2, 8] | growth inhibition by the drug by itself [2] | Summary of Combinations with Compound 44 (combination effect) [4] | Summary of Combinations with Compound 44 (combination effect) [5, 9] | growth inhibition by the drug by itself [5] | synergy in combination with Compound 44 [7] | other results |
| --- | --- | --- | --- | --- | --- | --- | --- | --- |
| CCN(c1cc(C#CCN2CCOCC2)cc(C(=O)NCc2c(C)cc(C)[nH]c2=O)c1C)C1CCC(N(C)CCOC)CC1 (centres unmarked) [Compound B] | – | – | – | – | – | – | – | cell proliferation (Ki67 stain) [1]: Decreased cell proliferation |
| C[C@@H]1C[C@H]2[C@@H]3CCC4=CC(=O)C=C[C@]4(C)[C@@]3(F)[C@@H](O)C[C@]2(C)[C@@]1(O)C(=O)CO [Dexamethasone, dexamethasone] | no effect | – | – | – | – | – | – | Summary of Combinations with Compound 44: potency enhanced [2, 8]: potency enhanced 5x; Summary of Combinations with Compound 44: potency enhanced [4]: potency enhanced 4x; Summary of Combinations with Compound 44: potency enhanced [5, 9]: 15x |
| COc1cccc2c1C(=O)c1c(O)c3c(c(O)c1C2=O)C[C@@](O)(C(=O)CO)C[C@@H]3O[C@H]1C[C@H](N)[C@H](O)[C@H](C)O1 [Doxurubicin, doxorubicin] | no effect | additive (Cl = 1 additive) | concentration-dependent growth inhibition | no effect | synergy (Cl < 1 synergy) | concentration-dependent growth inhibition | – | lifetime cumulative dosing limit [6]: < 550 mg/m^2 |
| CC1(C)CCC(c2ccc(Cl)cc2)=C(CN2CCN(c3ccc(C(=O)NS(=O)(=O)c4ccc(N[C@H](CCN5CCOCC5)CSc5ccccc5)c(S(=O)(=O)C(F)(F)F)c4)cc3)CC2)C1 [Navitoclax] | – | – | – | – | – | – | Very strong synergy | – |
| CC[C@]1(O)C[C@H]2CN(CCc3c([nH]c4ccccc34)[C@@](C(=O)OC)(c3cc4c(cc3OC)N(C=O)[C@H]3[C@@](O)(C(=O)OC)[C@H](OC(C)=O)[C@]5(CC)C=CCN6CC[C@]43[C@@H]65)C2)C1 [Vincristine, vincristine] | no effect | additive (Cl = 1 additive) | concentration-dependent growth inhibition | no effect | additive (Cl = 1 additive) | concentration-dependent growth inhibition | – | – |
| CO[C@H]1C[C@@H]2CC[C@@H](C)[C@@](O)(O2)C(=O)C(=O)N2CCCC[C@H]2C(=O)O[C@H]([C@H](C)C[C@@H]2CC[C@@H](OCCO)[C@H](OC)C2)CC(=O)[C@H](C)/C=C(\C)[C@@H](O)[C@@H](OC)C(=O)[C@H](C)C[C@H](C)/C=C/C=C/C=C/1C [everolimus] | – | – | – | – | – | – | Very strong synergy | – |
